Columns and labels:
[1] = molecular target: Human immunodeficiency virus type 1 integrase (Human immunodeficiency virus 1) (UniProt Q7ZJM1); test: Inhibition of strand transfer step useful in the integration of viral DNA into host cell DNA by inhibiting HIV integrase by compound
[2] = molecular target: Human immunodeficiency virus type 1 integrase (Human immunodeficiency virus 1) (UniProt Q7ZJM1); test: Inhibition of 3' processing step useful in the integration of viral DNA into host cell DNA by inhibiting HIV integrase by compound

Chain of Human immunodeficiency virus type 1 integrase (Human immunodeficiency virus 1) (Q7ZJM1 as listed by the source): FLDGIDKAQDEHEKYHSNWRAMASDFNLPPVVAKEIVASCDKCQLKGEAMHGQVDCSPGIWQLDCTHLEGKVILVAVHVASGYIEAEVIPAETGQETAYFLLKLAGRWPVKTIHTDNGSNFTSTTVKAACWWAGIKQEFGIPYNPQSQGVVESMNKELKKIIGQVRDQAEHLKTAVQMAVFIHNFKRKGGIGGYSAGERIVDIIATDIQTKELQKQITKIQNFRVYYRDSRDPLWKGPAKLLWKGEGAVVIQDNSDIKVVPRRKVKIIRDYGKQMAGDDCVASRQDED

| Structure (SMILES) | Inhibitory activity [1] [µM] | Inhibitory activity [2] [µM] |
| --- | --- | --- |
| Nc1ccn([C@H]2C[C@H](O)[C@@H](COP(=O)(O)O[C@H]3C[C@H](n4cnc5c(N)ncnc54)O[C@@H]3COP(=O)(O)O)O2)c(=O)n1 | 3 | 6 |
| Cc1cn([C@H]2C[C@H](N=[N+]=[N-])[C@@H](COP(=O)(O)O)O2)c(=O)[nH]c1=O | 140 | > 110 |
| Nc1ccn([C@H]2C[C@H](O)[C@@H](COP(=O)(O)O[C@H]3[C@H](n4cnc5c(N)ncnc54)CO[C@@H]3COP(=O)(O)O)O2)c(=O)n1 | 25 | 19 |
| Nc1ccn([C@H]2C[C@H](O)[C@@H](COP(=O)(O)O[C@H]3[C@H](n4cnc5c(N)ncnc54)CO[C@@H]3CO)O2)c(=O)n1 | 200 | 200 |
| Nc1ccn(C2CCC(COP(=O)(O)O)O2)c(=O)n1 (configuration not stated) | 45 | 50 |
| Nc1ncnc2c1ncn2C1COC(COP(=O)(O)O)C1O (configuration not stated) | > 200 | > 200 |

Source: ChEMBL document CHEMBL1133376, “Recognition and inhibition of HIV integrase by a novel dinucleotide” (Bioorg Med Chem Lett, 2000)
